# In patent US6413517B1, “Identification of broadly reactive DR restricted epitopes” (Epimmune, Inc., priority 1997, dated 2002):
# Read-outs that look alike come from different tables or passages of the source.
# Tests used:
# DRB1*1501 (DR2w2b) = molecular target: T1, DRB1*1501 (DR2w2b) (Homo sapiens, UniProt P01903+P01911); assay: biochemical; format: binding
# T1 construct: expressed in transfected cells; host or cells: transfected fibroblasts L466.1
# DRB1*0301 (DR3w17) [1] = molecular target: T2, DRB1*0301 (DR3w17) (Homo sapiens, UniProt P01903+P01911, A100K/A102G/A103R/A169T/F55Y/I96L/K41T/L162R/M171V/P40S/Q125H/Q178H/Q39Y/R42S/S66N/T106N/T262R/W38E/Y61H); assay: biochemical
# DRB1*0301 (DR3w17) [2] = molecular target: T2, DRB1*0301 (DR3w17); settings: read-out: Binding Capacity (IC 50% nM) Other Alleles DR3
# DRB1*0701 (DR7) = molecular target: T3, DRB1*0701 (DR7) (Homo sapiens, UniProt P01903+P01911, A100R/A102G/A103Q/D57E/D86V/E43K/F76Y/K127E/L162R/M171V/P40G/Q125H/Q99D/R33Q/R42Y/R54Q/S133A/S66F/T210M/V115G/Y107V/Y59L/Y89S); assay: biochemical; format: binding
# T3 construct: Epstein-Barr virus (EBV) transformed homozygous cell lines were used as sources; endogenous in cells; host or cells: PITOUT (EBV-transformed homozygous B cell line)
# DRB1*1302 (DR6w19) = molecular target: T4, DRB1*1302 (DR6w19) (Homo sapiens, UniProt P01903+P01911, A100E/A169T/K41T/L162R/M171V/P40S/Q125H/Q178H/Q39Y/Q99D/R42S/S66N/T262R/V115G/W38E/Y61H); assay: biochemical; format: binding; settings: Binding Capacity (IC 50% nM) Other Alleles DR6w19
# T4 construct: Epstein-Barr virus (EBV) transformed homozygous cell lines were used as sources; the source of Class II molecules the EBV transformed homozygous cell line H0301; endogenous in cells; host or cells: H0301 (EBV-transformed homozygous B cell line)
# DRB1*1201 (DR5w12) = molecular target: T5, DRB1*1201 (DR5w12) (Homo sapiens, UniProt P01903+P01911, A100R/A169T/D57E/D86V/F55L/H45Y/K41T/L162R/M171V/P40S/Q125H/Q178H/Q39Y/Q99D/R42G/S66L/T262R/V114A/V67L/W38E/Y59H/Y61H/Y89S); assay: biochemical; format: binding
# T5 construct: Epstein-Barr virus (EBV) transformed homozygous cell lines were used as sources; endogenous in cells; host or cells: Herluf (EBV-transformed homozygous B cell line)
# DRB1*0901 (DR9) = molecular target: T6, DRB1*0901 (DR9) (Homo sapiens, UniProt P01903+P01911, A100R/A103E/D57H/D86V/F55Y/F60I/F76Y/I96F/K127E/L162R/M171V/P40D/Q125H/Q99R/R33Q/R42F/S133A/S66N/T210M/V115G/W38K/Y107V/Y59G/Y89S); assay: biochemical; format: binding; settings: Binding Capacity (IC 50% nM) Other Alleles DR9
# T6 construct: Epstein-Barr virus (EBV) transformed homozygous cell lines were used as sources; endogenous in cells
# DRB1*0401 (DR4w4) = molecular target: T7, DRB1*0401 (DR4w4) (Homo sapiens, UniProt P01903+P01911, A100K/A169T/F76Y/I96L/K127E/L162R/M171V/N62H/P40V/Q125Y/R42H/S133A/S149N/S66Y/V115G/V209L/W38E); assay: biochemical; format: binding
# T7 construct: Epstein-Barr virus (EBV) transformed homozygous cell lines were used as sources; endogenous in cells; host or cells: PREISS (EBV-transformed homozygous B cell line)
# DRB1*0101 (DR1) = molecular target: T8, DRB1*0101 (DR1) (Homo sapiens, UniProt P01903+P01911, A100R/D57E/F55L/F60I/F76Y/I96L/L162R/M171V/P40L/Q125E/R42F/V115G/Y59C); assay: biochemical; format: binding; settings: Binding Capacity (IC 50% nM) DR1,4,7 DRB1
# T8 construct: Epstein-Barr virus (EBV) transformed homozygous cell lines were used as sources; endogenous in cells; host or cells: LG2 (EBV-transformed homozygous B cell line)
# DRB1*1101 (DR5w11) = molecular target: T9, DRB1*1101 (DR5w11) (Homo sapiens, UniProt P01903+P01911, A100R/A169T/A87E/I96F/K41T/L162R/M171V/P40S/Q125H/Q178H/Q39Y/Q99D/R42S/S66Y/T262R/V115G/W38E); assay: biochemical; format: binding
# T9 construct: Epstein-Barr virus (EBV) transformed homozygous cell lines were used as sources; endogenous in cells; host or cells: SWEIG (EBV-transformed homozygous B cell line)
# DRB1*0405 (DR4w15) = molecular target: T10, DRB1*0405 (DR4w15) (Homo sapiens, UniProt P01903+P01911, A100R/A169T/D86S/F76Y/I96L/K127E/L162R/M171V/N62H/P40V/Q125Y/R42H/S133A/S149N/S66Y/V115G/V209L/W38E); assay: biochemical; format: binding
# T10 construct: Epstein-Barr virus (EBV) transformed homozygous cell lines were used as sources; endogenous in cells; host or cells: KT3 (EBV-transformed homozygous B cell line)
# DRB1*0802 (DR8w2) = molecular target: T11, DRB1*0802 (DR8w2) (Homo sapiens, UniProt P01903+P01911, A100R/A103L/A169T/F76Y/H45Y/I96F/K41T/L162R/M171V/P40S/Q125H/Q178H/Q39Y/Q99D/R218S/R42G/S66Y/V115G/W38E); assay: biochemical; format: binding
# T11 construct: Epstein-Barr virus (EBV) transformed homozygous cell lines were used as sources; endogenous in cells; host or cells: OLL (EBV-transformed homozygous B cell line)
# DRB5*0101 (DR2w2a) = molecular target: T12, DRB5*0101 (DR2w2a) (Homo sapiens, UniProt P01903+Q30154); assay: biochemical; format: binding
# T12 construct: Epstein-Barr virus (EBV) transformed homozygous cell lines were used as sources; endogenous in cells; host or cells: GM3107 (EBV-transformed homozygous B cell line)
# [3] = Binding Capacity (IC50% nM) DR2w2b
# [4] = read-out: Binding Capacity (IC 50% nM) Other Alleles DR2w2b
# [5] = Binding Capacity (IC50% nM) DR3
# [6] = Binding Capacity (IC 50% nM) DR1,4,7 DR7
# [7] = Binding Capacity (IC 50% nM) Other Alleles DR2w2b
# [8] = Binding Capacity (IC 50% nM) DR1,4,7 DR4w4
# [9] = read-out: Binding Capacity (IC 50% nM) Other Alleles DR5w11
# [10] = Binding Capacity (IC 50% nM) Other Alleles DR8w2
# [11] = Binding Capacity (IC 50% nM) Other Alleles DR2w2a
# [12] = Binding Capacity (IC50% nM) DR5w12
# [13] = read-out: Binding Capacity (IC 50% nM) Other Alleles DR5w12
# [14] = Binding Capacity (IC50% nM) DR4w4
# [15] = Binding Capacity (IC50% nM) DR5w11
# [16] = read-out: Binding Capacity (IC 50% nM) Other Alleles DR4w15
# [17] = read-out: Binding Capacity (IC 50% nM) Other Alleles DR8w2
# T9 sequence (P01903 26-254, other chains not shown): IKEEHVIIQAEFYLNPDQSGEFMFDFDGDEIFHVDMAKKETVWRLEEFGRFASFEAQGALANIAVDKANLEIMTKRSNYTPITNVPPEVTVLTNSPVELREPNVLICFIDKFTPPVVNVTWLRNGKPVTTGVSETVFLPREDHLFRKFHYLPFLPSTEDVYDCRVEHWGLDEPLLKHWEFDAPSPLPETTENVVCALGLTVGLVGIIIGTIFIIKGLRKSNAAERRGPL
Structure (SMILES),IC50 (DRB1*1501 (DR2w2b); [3]) [nM],IC50 (DRB1*1501 (DR2w2b); [4]) [nM],IC50 (DRB1*0301 (DR3w17) [1]; [5]) [nM],IC50 (DRB1*0301 (DR3w17) [2]) [nM],IC50 (DRB1*0701 (DR7); [6]) [nM],IC50 (DRB1*1302 (DR6w19)) [nM],IC50 (DRB1*1501 (DR2w2b); [7]) [nM],IC50 (DRB1*0901 (DR9)) [nM],IC50 (DRB1*0401 (DR4w4); [8]) [nM],IC50 (DRB1*0101 (DR1)) [nM],IC50 (DRB1*1101 (DR5w11); [9]) [nM],IC50 (DRB1*0802 (DR8w2); [10]) [nM],IC50 (DRB5*0101 (DR2w2a); [11]) [nM],IC50 (DRB1*1201 (DR5w12); [12]) [nM],IC50 (DRB1*1201 (DR5w12); [13]) [nM],IC50 (DRB1*0401 (DR4w4); [14]) [nM],IC50 (DRB1*1101 (DR5w11); [15]) [nM],IC50 (DRB1*0405 (DR4w15); [16]) [nM],IC50 (DRB1*0802 (DR8w2); [17]) [nM],also measured
CC(C)C[C@H](NC(=O)CN)C(=O)N[C@@H](C)C(=O)N[C@@H](Cc1ccc(O)cc1)C(=O)N[C@@H](CCCCN)C(=O)N[C@@H](Cc1ccccc1)C(=O)N[C@H](C(=O)N[C@H](C(=O)N1CCC[C@H]1C(=O)NCC(=O)N[C@@H](C)C(=O)N[C@@H](C)C(=O)N[C@H](C(=O)N1CCC[C@H]1C(=O)N[C@@H](Cc1ccc(O)cc1)C(=O)O)[C@@H](C)O)C(C)C)C(C)C [Peptide 1188.32],> 10000,> 1000,> 10000,> 1000,,,,,,,,,,,,,,,,
CC[C@H](C)[C@H](NC(=O)[C@H](CC(C)C)NC(=O)[C@H](CCCCN)NC(=O)[C@H](CCSC)NC(=O)[C@H](C)NC(=O)[C@H](CC(C)C)NC(=O)[C@@H]1CCCN1C(=O)[C@@H](NC(=O)[C@H](C)NC(=O)[C@H](Cc1c[nH]cn1)NC(=O)[C@H](CC(N)=O)NC(=O)[C@@H](NC(=O)[C@H](Cc1c[nH]c2ccccc12)NC(=O)[C@H](CC(N)=O)NC(=O)[C@@H](N)Cc1c[nH]cn1)C(C)C)C(C)C)C(=O)O [Peptide 1188.34],,,,> 1000,< 1000,< 1000,< 1000,< 1000,< 1000,< 1000,> 1000,< 1000,< 1000,,,,,,,IC50 (DRB1*1201 (DR5w12); Binding Capacity (IC 50% nM) Other Alleles DR5w12): < 1000 nM; IC50 (DRB1*0405 (DR4w15); Binding Capacity (IC 50% nM) Other Alleles DR4w15): < 1000 nM
CC[C@H](C)[C@H](NC(=O)[C@H](CO)NC(=O)[C@H](CO)NC(=O)[C@H](CC(N)=O)NC(=O)[C@@H](NC(=O)[C@@H](NC(=O)[C@H](CC(N)=O)NC(=O)[C@@H](N)Cc1ccccc1)C(C)C)C(C)C)C(=O)NCC(=O)N[C@@H](CC(C)C)C(=O)N[C@H](C(=O)N[C@@H](CCSC)C(=O)N[C@H](C(=O)N[C@@H](CC(C)C)C(=O)N[C@@H](CO)C(=O)O)C(C)C)[C@@H](C)CC [Peptide 27.384],,,> 10000,> 1000,,,,,,,> 1000,,,> 10000,> 1000,> 10000,> 10000,> 1000,> 1000,"IC50 (DRB1*0401 (DR4w4); read-out: Binding Capacity (IC 50% nM) DR1,4,7 DR4w4): > 1000 nM; IC50 (DRB1*0405 (DR4w15); Binding Capacity (IC50% nM) DR4w15): > 10000 nM; IC50 (DRB1*0802 (DR8w2); Binding Capacity (IC50% nM) DR8w2): > 10000 nM"
CC(C)[C@H](NC(=O)[C@H](Cc1ccccc1)NC(=O)[C@@H](N)CCCCN)C(=O)N[C@H](C(=O)N1CCC[C@H]1C(=O)NCC(=O)N[C@@H](C)C(=O)N[C@@H](C)C(=O)N[C@H](C(=O)N1CCC[C@H]1C(=O)N[C@@H](Cc1ccc(O)cc1)C(=O)N[C@@H](C)C(=O)NCC(=O)N[C@@H](CCC(=O)O)C(=O)N1CCC[C@H]1C(=O)O)[C@@H](C)O)C(C)C [Peptide F107.17],> 10000,> 1000,,> 1000,,< 1000,,< 1000,< 1000,< 1000,> 1000,,,,> 1000,,> 10000,> 1000,> 1000,"IC50 (DRB1*0701 (DR7); Binding Capacity (IC50% nM) DR7): > 10000 nM; IC50 (DRB1*0701 (DR7); read-out: Binding Capacity (IC 50% nM) DR1,4,7 DR7): > 1000 nM; IC50 (DRB5*0101 (DR2w2a); Binding Capacity (IC50% nM) DR2w2a): > 10000 nM; IC50 (DRB5*0101 (DR2w2a); read-out: Binding Capacity (IC 50% nM) Other Alleles DR2w2a): > 1000 nM"
CSCC[C@H](NC(=O)[C@H](C)NC(=O)[C@H](CC(C)C)NC(=O)[C@@H]1CCCN1C(=O)[C@@H](NC(=O)[C@H](C)NC(=O)[C@H](Cc1c[nH]cn1)NC(=O)[C@H](CC(N)=O)NC(=O)[C@@H](NC(=O)[C@H](Cc1c[nH]c2ccccc12)NC(=O)[C@H](CC(N)=O)NC(=O)[C@H](Cc1c[nH]cn1)NC(=O)[C@@H](N)CCCNC(=N)N)C(C)C)C(C)C)C(=O)N[C@@H](CCCCN)C(=O)N[C@@H](CC(C)C)C(=O)O [Peptide 1188.45],,,,,< 1000,< 1000,< 1000,< 1000,< 1000,< 1000,> 1000,< 1000,< 1000,> 10000,> 1000,9,,> 1000,,IC50 (DRB1*0301 (DR3w17) [1]; Binding Capacity (IC 50% nM) Other Alleles DR3): < 1000 nM
CC[C@H](C)[C@H](NC(=O)[C@H](C)NC(=O)[C@H](CC(C)C)NC(=O)[C@H](CCCCN)NC(=O)[C@H](CCCNC(=N)N)NC(=O)[C@@H](N)CCSC)C(=O)N[C@@H](CC(C)C)C(=O)N[C@@H](CO)C(=O)N[C@H](C(=O)N[C@@H](CO)C(=O)N[C@@H](CO)C(=O)N[C@@H](Cc1ccccc1)C(=O)N[C@@H](CC(C)C)C(=O)N[C@@H](Cc1ccccc1)C(=O)N[C@H](C(=O)O)C(C)C)C(C)C [Peptide 27.388],,,> 10000,,,,,,,< 1000,,,,,,,,,,
